GI50 and TGI data for nine compounds are collected here from PubChem BioAssay (NCI).

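Assay format: 96-well plates, 48-hour exposure. At the GI50, growth is halved. At the TGI there is no net growth.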

Test systems include A549 NSCLC; ACHN renal; EKVX NSCLC; HL-60(TB) leukemia; MDA-MB-231 breast; MDA-MB-435; NCI-H23 lung; OVCAR-4 ovarian; RXF 393 renal; SW-620 colon.
Holding throughout (test): DTP human tumour cell line panel, 48 h

For orientation: GI50 means the concentration that inhibits growth by half. As a reminder, the TGI is the concentration at which net growth stops. Turning to `Clc1cccc(CNc2c3ccccc3nc3ccccc23)c1`, the GI50 with A549 NSCLC was 2.07 µM; with ACHN renal, 1.59 µM; with EKVX NSCLC it was 2.76 µM; in the test on HL-60(TB) leukemia, 1.9 µM; in the test on MDA-MB-231 breast, 1.91 µM; in the test with MDA-MB-435, 1.67 µM. Also, the GI50 was 1.73 µM in the test on NCI-H23 lung, 2.15 µM with OVCAR-4 ovarian, 1.35 µM in the test with RXF 393 renal and 1.47 µM with SW-620 colon. Besides, the TGI in the test with A549 NSCLC came out at 6.01 µM; in the test on ACHN renal it was 3.66 µM; in the test with EKVX NSCLC it was 11.2 µM; in the test on HL-60(TB) leukemia, 4.35 µM; in the test with MDA-MB-231 breast, 4.75 µM; with MDA-MB-435, 3.13 µM. For the same compound, the TGI amounted to 4.93 µM in the test with NCI-H23 lung, 7.95 µM in the test with OVCAR-4 ovarian, 2.85 µM in the test on RXF 393 renal and 3.91 µM in the test on SW-620 colon.
With `COc1ccc(-c2cc(-c3ccc(Cl)cc3)nc(NCCCCNc3ccnc4cc(Cl)ccc34)n2)cc1`, the GI50 was 1.87 µM in the test with A549 NSCLC; 12.6 µM in the test on ACHN renal; 13.2 µM in the test on EKVX NSCLC; 5.08 µM with HL-60(TB) leukemia; 1.72 µM with MDA-MB-231 breast; 1.79 µM in the test with MDA-MB-435. Also, the GI50 is 2.61 µM in the test with NCI-H23 lung, 1.72 µM in the test with OVCAR-4 ovarian, 1.65 µM with RXF 393 renal and 1.76 µM in the test with SW-620 colon. Also, the TGI with A549 NSCLC is 3.9 µM; in the test on ACHN renal, 25.6 µM; with EKVX NSCLC, 35.1 µM; with HL-60(TB) leukemia, 22.1 µM; in the test with MDA-MB-231 breast, 3.28 µM; in the test with MDA-MB-435 it was 3.27 µM. For the same compound, the TGI in the test on NCI-H23 lung was found to be 9.3 µM; in the test on OVCAR-4 ovarian, 3.49 µM; in the test on RXF 393 renal, 5.2 µM; in the test with SW-620 colon, 3.46 µM.
Take `COc1cc(-c2nc3ccccc3o2)cc(CN2CCCCC2)c1O`: the GI50 with A549 NSCLC was 1.63 µM; in the test with ACHN renal, 8.96 µM; in the test with EKVX NSCLC, 12.3 µM; with HL-60(TB) leukemia, 4.77 µM; in the test on MDA-MB-231 breast, 12.2 µM; with MDA-MB-435, 1.7 µM. The GI50 in the test with NCI-H23 lung is 1.54 µM; in the test on OVCAR-4 ovarian, 9.48 µM; in the test on RXF 393 renal it was 17.1 µM; in the test on SW-620 colon it was 1.92 µM. For the same compound, the TGI in the test on A549 NSCLC was 4.12 µM; with ACHN renal it was 83.8 µM; in the test with EKVX NSCLC, above 100 µM; with HL-60(TB) leukemia it was 36.9 µM; with MDA-MB-231 breast, above 100 µM; in the test on MDA-MB-435, 3.53 µM. Besides, the TGI in the test on NCI-H23 lung was 5.26 µM; with OVCAR-4 ovarian, above 71.8 µM; with RXF 393 renal it was 52 µM; in the test on SW-620 colon it was 8.13 µM.
Take `O=C(Nc1cc(F)c(F)cc1C(=O)O)c1ccc(-n2ccnc2)nn1`: the GI50 with A549 NSCLC is above 100 µM; in the test on ACHN renal, above 100 µM; with EKVX NSCLC, above 100 µM; with HL-60(TB) leukemia it was 38.9 µM; in the test on MDA-MB-231 breast it was above 100 µM; in the test on MDA-MB-435 it was above 100 µM. Besides, the GI50 in the test with NCI-H23 lung is above 100 µM; in the test with OVCAR-4 ovarian it was 65.6 µM; in the test with RXF 393 renal it was 19.6 µM; with SW-620 colon it was above 100 µM. In addition, the TGI in the test on A549 NSCLC, in the test with ACHN renal, in the test with EKVX NSCLC, with HL-60(TB) leukemia, in the test on MDA-MB-231 breast and with MDA-MB-435 was above 100 µM each time. In addition, the TGI with NCI-H23 lung, in the test with OVCAR-4 ovarian, in the test on RXF 393 renal and with SW-620 colon was above 100 µM each time.
Turning to `CCN(CC)CCN1c2nc3ccccc3cc2Sc2cc3ccccc3nc21`, the GI50 in the test with A549 NSCLC was 2.34 µM; with ACHN renal, 2.58 µM; with EKVX NSCLC, 4.49 µM; in the test with HL-60(TB) leukemia, 1.99 µM; in the test with MDA-MB-231 breast, 1.58 µM; in the test on MDA-MB-435 it was 1.8 µM. Further, the GI50 with NCI-H23 lung is 2.51 µM; in the test on OVCAR-4 ovarian, 2.74 µM; with RXF 393 renal, 3.78 µM; in the test with SW-620 colon, 1.53 µM. Moreover, the TGI with A549 NSCLC is 6.12 µM; in the test with ACHN renal, 9.29 µM; with EKVX NSCLC it was 17.9 µM; in the test on HL-60(TB) leukemia, 4.21 µM; in the test with MDA-MB-231 breast, 4.03 µM; in the test with MDA-MB-435, 3.97 µM. Further, the TGI with NCI-H23 lung came out at 10.6 µM; in the test with OVCAR-4 ovarian it was 13.4 µM; in the test with RXF 393 renal, 18 µM; with SW-620 colon, 2.99 µM.
Take `O=C(NCCOCCOCCOCCNC(=O)c1cc2c(o1)C(=O)c1ccccc1C2=O)NC12CC3CC(CC(C3)C1)C2`: the GI50 with A549 NSCLC is 0.517 µM; in the test with ACHN renal, 1.75 µM; in the test with EKVX NSCLC, 2.57 µM; with HL-60(TB) leukemia, 2.16 µM; in the test on MDA-MB-231 breast it was 3.04 µM; in the test on MDA-MB-435 it was 0.388 µM. In addition, the GI50 with NCI-H23 lung is 0.234 µM; in the test with OVCAR-4 ovarian it was 1.02 µM; with RXF 393 renal, 1.58 µM; with SW-620 colon it was 2.35 µM. Also, the TGI is 2.34 µM in the test on A549 NSCLC; 4.21 µM in the test with ACHN renal; 7.07 µM in the test on EKVX NSCLC; 6.46 µM with HL-60(TB) leukemia; 16.6 µM in the test on MDA-MB-231 breast; 1.36 µM in the test on MDA-MB-435. The TGI in the test with NCI-H23 lung came to 1.97 µM; in the test with OVCAR-4 ovarian, 2.27 µM; in the test on RXF 393 renal, 3.05 µM; with SW-620 colon, 7.26 µM.
Regarding `COc1ccc(C(=O)c2cc3c(N)c(C(=O)Nc4cccc(Br)c4C)sc3nc2C)cc1`, the GI50 in the test on A549 NSCLC is 0.132 µM; with ACHN renal it was 0.0693 µM; in the test on EKVX NSCLC, 0.0954 µM; with HL-60(TB) leukemia, 0.0282 µM; in the test with MDA-MB-231 breast it was 0.13 µM; in the test on MDA-MB-435, 0.0223 µM. Moreover, the GI50 in the test with NCI-H23 lung was 0.354 µM; with OVCAR-4 ovarian, 0.474 µM; in the test with RXF 393 renal it was 0.0214 µM; in the test on SW-620 colon it was 0.046 µM. In addition, the TGI in the test with A549 NSCLC was above 100 µM; with ACHN renal it was above 100 µM; with EKVX NSCLC it was above 100 µM; in the test on HL-60(TB) leukemia, 0.0954 µM; with MDA-MB-231 breast it was 17.3 µM; in the test with MDA-MB-435, 0.0585 µM. Besides, the TGI in the test with NCI-H23 lung, in the test with OVCAR-4 ovarian and with SW-620 colon was above 100 µM in each case.
On to `COc1ccc2c(O)c(/C=C3\N=Nc4ncccc43)oc2c1C[C@@H]1CCNC[C@H]1F`, for which the GI50 in the test with A549 NSCLC is 1.31 µM; in the test with ACHN renal, 0.51 µM; in the test with EKVX NSCLC, 0.426 µM; in the test with HL-60(TB) leukemia, 0.314 µM; with MDA-MB-231 breast it was 0.728 µM; in the test on MDA-MB-435, 1.21 µM. Besides, the GI50 in the test with NCI-H23 lung was 0.861 µM; in the test with OVCAR-4 ovarian, 1.41 µM; in the test with RXF 393 renal it was 0.253 µM; in the test with SW-620 colon, 0.34 µM. Also, the TGI in the test on A549 NSCLC was 3.93 µM; in the test on ACHN renal it was 2.83 µM; with EKVX NSCLC it was 2.56 µM; with HL-60(TB) leukemia, 1.14 µM; with MDA-MB-231 breast, 2.77 µM; with MDA-MB-435 it was 2.79 µM. Also, the TGI with NCI-H23 lung was 3.51 µM; with OVCAR-4 ovarian, 3.45 µM; with RXF 393 renal, 0.984 µM; with SW-620 colon, 1.12 µM.
With `COc1cc2c3c(n(CCCNCCCNCCN)c(=O)c2cc1OC)-c1cc2c(cc1C3=O)OCO2`, the GI50 in the test with A549 NSCLC was above 100 µM; with ACHN renal, 18.7 µM; with EKVX NSCLC, above 100 µM; in the test with HL-60(TB) leukemia it was 46.9 µM; with MDA-MB-231 breast, 28.8 µM; in the test with MDA-MB-435 it was 38 µM. In addition, the GI50 with NCI-H23 lung is 24.7 µM; in the test on OVCAR-4 ovarian it was 18.6 µM; in the test on RXF 393 renal, above 100 µM; with SW-620 colon it was 30.8 µM. In addition, the TGI with A549 NSCLC is above 100 µM; with ACHN renal it was 57.1 µM; in the test with EKVX NSCLC, above 100 µM; in the test with HL-60(TB) leukemia it was above 100 µM; with MDA-MB-231 breast, above 100 µM; in the test with MDA-MB-435, above 100 µM. In addition, the TGI in the test with NCI-H23 lung is 78.7 µM; in the test on OVCAR-4 ovarian, 55.6 µM; with RXF 393 renal, above 100 µM; in the test with SW-620 colon, above 100 µM.
